Test results reported in patent US5401648A, “Peptides having peptidyl transferase inhibiting activity and methods of use thereof” (University of Maryland College Park, priority 1993, dated 1995).

Experiments:
[1] = system: peptidyl transferase activity of the 50S subunits; assay: Fragment reaction peptidyl transferase assay with dissociated 50S subunits; type: biochemical, B. subtilis BR151
Method: (§1) The fragment reaction was used to assay peptidyl transferase activity. Reaction mixes consisted of 60 mM Tris-HCl (pH 7.4), 400 mM KCl, 20 mM magnesium sulfate, and 1 mM neutralized puromycin in 50 μl, to which was added 25 μl absolute ethanol. Unless specifically noted, 70S ribosomes purified from B. subtilis BR151 as described in Spedding^1/ were added to 0.55 uM ^35 S-labeled N-formylmethionine, charged to tRNA and digested with endonuclease T1 as described by Marcker^2/, was added to each reaction at 1×10^6 to 2×10^6 cpm.
(§2) Peptide inhibitors were typically preincubated with the ribosomes prior to addition to the other reactants. Antibiotic inhibitors such as chloramphenicol were added to reaction mixes with the ribosomes but without the preincubation step. […] Peptidyl transferase reaction mixes were incubated on ice for 1 h, and were terminated by addition of 50 μl of 0.3M sodium acetate saturated with magnesium sulfate followed by 1 ml of ethyl acetate. The ethyl acetate phase was counted for radioactivity. All peptidyl transferase assays were performed in duplicate or triplicate, and the replicates varied by less than 5%. In separate experiments, the inhibitory activity of a single peptide preparation on a single ribosome preparation varied by as much as 10%.
The 50S subunit contains the target for the 5-mer peptide. […]

peptidyl transferase = assay: Fragment reaction peptidyl transferase assay with 70S ribosomes; type: biochemical, B. subtilis BR151; conditions: preincubation of inhibitor with ribosomes prior to addition to other reactants
Method: as §1, §2

| Compound | effect on the peptidyl transferase activity of the 50S subunits [1] | effect of preincubation with ribosomes on inhibitory effect on peptidyl transferase (peptidyl transferase) |
| --- | --- | --- |
| 4-mer: 4-mer comparison peptide (SEQ ID NO: 5), sequence not printed in the text (MVKT) | little effect |  |
| O=C(N[C@H](CO)[C@H](O)c1ccc([N+](=O)[O-])cc1)C(Cl)Cl [chloramphenicol] |  | failed to increase |
